From ChEMBL document CHEMBL2146452, “Creation of readily accessible and orally active analogue of cortistatin a” (ACS Med Chem Lett, 2012) come the findings set out here.

Broadly, the pIC50 is the IC50 on a negative log10 scale, so that one unit is a factor of ten. A low value points to a high IC50.

One series relates to HUVEC. Briefly: Antiproliferative activity against HUVEC after 72 hrs by WST8 assay. The conditions noted are these: Homo sapiens. It counts as functional, cell-based. Background: Formazan colour is commonly taken as a measure of viable cells.
The nature of series [1]: Antiproliferative activity against human KB3-1 cells after 72 hrs by WST8 assay. It counts as cell-based. Particulars: KB 3-1, 72 h.
Another series has as its system KB 3-1. Briefly: Selectivity index, ratio of IC50 for human KB3-1 cells to IC50 for HUVEC.
Series [2] deals with CCRF S-180. Briefly: Antitumor activity against mouse S180 cells xenografted in ddY mouse assessed as tumor growth inhibition at >25 mg/kg, po administered QOD for 14 days relative to vehicle-treated control. The series is classed as functional.
Series [3] relates to Mus musculus. Briefly: Toxicity in S180 cells xenografted ddY mouse assessed as body weight loss up to 100 mg/kg, po administered QOD for 14 days relative to vehicle-treated control. It counts as organism-based, CCRF S-180. Also on record: dose 100 mg/kg, route oral. Particulars: in vivo, 336 h.
In series [4] the test system is Mus musculus. Put plainly: Toxicity in S180 cells xenografted ddY mouse assessed as diarrhea up to 100 mg/kg, po administered QOD for 14 days. The series is classed as organism-based, CCRF S-180. Details: dose 100 mg/kg, route oral. The conditions noted are these: in vivo, 336 h.
The next series concerns K562. Briefly: Antiproliferative activity against human K562 cells. It counts as cell-based.
Series [5] in a line: Antiproliferative activity against mouse Neuro2a cells. The series is classed as cell-based. The conditions noted are these: N2a.
A further series deals with NHDF. Put plainly: Antiproliferative activity against human NHDF cells. The series is classed as cell-based.
In series [6] the test system is Mus musculus. Put plainly: Antiangiogenic activity in ddY mouse assessed as inhibition of bFGF-induced capillary formation in matrigel plug measured as hemoglobin level at 5 to 25 mg/kg, po administered QOD for 10 days by Drabkin reagent-based assay. It counts as functional, organism-based.
Series [7] has as its system CCRF S-180. Put plainly: Antitumor activity against mouse S180 cells xenografted in ddY mouse assessed as tumor growth inhibition at >5 mg/kg, po administered QOD for 14 days relative to vehicle-treated control. It counts as functional, organism-based.
In series [8] the test system is CCRF S-180. Briefly: Antitumor activity against mouse S180 cells xenografted in po dosed ddY mouse assessed as tumor growth inhibition. It counts as functional, organism-based.

The structures appear in SMILES notation. pIC50: −log10 of the molar value. Calls of active or inactive are those of the source. The rule behind the calls is not given here. Bounds are passed on as bounds.

Consider `CN(C)c1ccc(/C=C2/CC[C@@]3(C)[C@@H](CC[C@@H]3c3ccc4ccncc4c3)C2)cc1`, for which the negative-log IC50 (pIC50) in the series with HUVEC is 4.82; in [1], 4.70. Moreover, the “Ratio IC50” value in the series with KB 3-1 came to 1.5.

In the case of `C[C@]12CCC3=CC4=C(CCCC4=O)O[C@H]3[C@@H]1CC[C@@H]2c1ccc2ccncc2c1`, the “growth inhibition (GI)” value in the series with CCRF S-180 [2] turned out to be 90%. The Activity result in the series with Mus musculus [3] and in the series on Mus musculus [4] was “Non-toxic” each time. In addition, the pIC50 was 7.46 in the series with HUVEC; 4.98 in series [1]; 5.30 in the series on K562; 4.98 in [5]; 5.40 in the series on NHDF. In the series on KB 3-1, the “Ratio IC50” value is above 100. Besides, in the series with Mus musculus [6], the inhibition entry is “Active”. Also, the “growth inhibition (GI)” value in the series on CCRF S-180 [7] was “Active”.

`C[C@]12C=CC3=CC4=C(CCCC4=O)O[C@H]3[C@@H]1CC[C@@H]2c1ccc2ccncc2c1`: in the series with CCRF S-180 [8], the “growth inhibition (GI)” value was “Active”. Moreover, the pIC50 was 7.00 with HUVEC; 4.98 in series [1]; 5.22 with K562; 4.98 in series [5]; 4.98 in the series on NHDF. Also, the “Ratio IC50” value with KB 3-1 is recorded as above 100.

As for `CN(C)C1CC=C(/C=C2/CC[C@@]3(C)[C@@H](CC[C@@H]3c3ccc4ccncc4c3)C2)CC1` (some centres undefined), the pIC50 with HUVEC is 5.70; in series [1] it was 4.74. Also, the “Ratio IC50” value in the series on KB 3-1 is on record as 9.
